According to patent EP0550016A1, “Novel quinolone carboxylic acid derivatives and processes for preparing same” (KOREA RESEARCH INSTITUTE OF CHEMICAL TECHNOLOGY, priority 1991, dated 1993):
≈ marks a conversion by molar mass, not a printed value. Like-named read-outs stand apart in the source and are kept apart here.

Tests used:
[1] = tested on: Staphylococcus aureus 703 E; assay: In vitro anti-bacterial activity test (MIC, two-fold dilution method), Table 2 strains; format: cell-based
[2] = tested on: Staphylococcus aureus 695 E; assay: as above; format: cell-based
[3] = tested on: Staphylococcus aureus 707 E; assay: as above; format: cell-based
Escherichia coli DC 0 [4] = assay: In vitro anti-bacterial activity test (MIC, two-fold dilution method) against the standard strains; format: cell-based; settings: DC0; Table 1 strain 7: Escherichia coli DC 0
[5] = tested on: Staphylococcus aureus 693 E; assay: In vitro anti-bacterial activity test (MIC, two-fold dilution method), Table 2 strains; format: cell-based
P. mirabilis = assay: Preventive effect against the systemic infection; format: in vivo; settings: Proteus mirabilis, 168 h, NMRI mice, survival on day 7, read-out: ED₅₀
Protocol: (§1) 10 fold of the pathogen which leads to 100% lethality were injected intraperitoneally to male and female NMRI mice weighing 18 to 20g. Immediately and after 4 hours, the dose of test compounds which was determined by two-fold serial dilution method was administered orally or subcutaneously; and on day 7, the effectiveness was evaluated in terms of ED₅₀ calculated from the number of survived mice by the probit analysis.

S. aureus 17740 = assay: Preventive effect against the systemic infection; format: in vivo; settings: Staphylococcus aureus, 168 h, Oral Administration, NMRI mice, survival on day 7, read-out: ED₅₀
Protocol: as §1

[6] = tested on: Staphylococcus aureus 714 E; assay: In vitro anti-bacterial activity test (MIC, two-fold dilution method), Table 2 strains; format: cell-based
[7] = tested on: Staphylococcus aureus 694 E; assay: as above; format: cell-based
[8] = tested on: Klebsiella aerogenes 1082 E; assay: In vitro anti-bacterial activity test (MIC, two-fold dilution method) against the standard strains; format: cell-based; settings: Table 1 strain 17: Klebsiella aerogenes 1082 E
[9] = tested on: Pseudomonas aeruginosa 1771; assay: as above; format: cell-based; settings: Table 1 strain 14: Pseudomonas aeruginosa 1771
[10] = tested on: Staphylococcus aureus 503; assay: as above; format: cell-based
[11] = tested on: Staphylococcus aureus 256 E; assay: In vitro anti-bacterial activity test (MIC, two-fold dilution method), Table 2 strains; format: cell-based; settings: Table 2 strain 4: Staphylococcus aureus 256 E
[12] = tested on: Staphylococcus aureus 708 E; assay: as above; format: cell-based; settings: Table 2 strain 16: Staphylococcus aureus 708 E
[13] = tested on: Streptococcus pyogenes 77 A; assay: In vitro anti-bacterial activity test (MIC, two-fold dilution method) against the standard strains; format: cell-based
Escherichia coli DC 0 [14] = assay: as above; format: cell-based; settings: DC0; Table 1 strain 8: Escherichia coli DC 0
[15] = tested on: Pseudomonas aeruginosa 1592 E; assay: as above; format: cell-based; settings: Table 1 strain 13: Pseudomonas aeruginosa 1592 E
[16] = tested on: Staphylococcus aureus 706 E; assay: In vitro anti-bacterial activity test (MIC, two-fold dilution method), Table 2 strains; format: cell-based
[17] = tested on: Staphylococcus aureus SG 511; assay: In vitro anti-bacterial activity test (MIC, two-fold dilution method) against the standard strains; format: cell-based; settings: SG511; Table 1 strain 4: Staphylococcus aureus SG 511
[18] = tested on: Pseudomonas aeruginosa 1771 M; assay: as above; format: cell-based; settings: Table 1 strain 15: Pseudomonas aeruginosa 1771 M
Escherichia coli 1507 E = assay: as above; format: cell-based; settings: Table 1 strain 11: Escherichia coli 1507 E
[19] = tested on: Staphylococcus aureus 701 E; assay: In vitro anti-bacterial activity test (MIC, two-fold dilution method), Table 2 strains; format: cell-based
Escherichia coli DC 2 = assay: In vitro anti-bacterial activity test (MIC, two-fold dilution method) against the standard strains; format: cell-based; settings: DC2; Table 1 strain 9: Escherichia coli DC 2; read-out: MIC
[20] = tested on: Streptococcus pyogenes 308 A; assay: as above; format: cell-based; settings: Table 1 strain 1: Streptococcus pyogenes 308 A
[21] = tested on: Staphylococcus aureus 88 E; assay: In vitro anti-bacterial activity test (MIC, two-fold dilution method), Table 2 strains; format: cell-based; settings: Table 2 strain 1: Staphylococcus aureus 88 E
[22] = tested on: Staphylococcus aureus 690 E; assay: as above; format: cell-based
[23] = tested on: Staphylococcus aureus 285; assay: In vitro anti-bacterial activity test (MIC, two-fold dilution method) against the standard strains; format: cell-based
[24] = tested on: Staphylococcus aureus 208 E; assay: In vitro anti-bacterial activity test (MIC, two-fold dilution method), Table 2 strains; format: cell-based
[25] = tested on: Staphylococcus aureus 697 E; assay: as above; format: cell-based; settings: Table 2 strain 10: Staphylococcus aureus 697 E
Escherichia coli OTEM = assay: In vitro anti-bacterial activity test (MIC, two-fold dilution method) against the standard strains; format: cell-based; settings: Table 1 strain 10: Escherichia coli OTEM
[26] = tested on: Staphylococcus aureus 121 E; assay: In vitro anti-bacterial activity test (MIC, two-fold dilution method), Table 2 strains; format: cell-based
[27] = tested on: Pseudomonas aeruginosa 9027; assay: In vitro anti-bacterial activity test (MIC, two-fold dilution method) against the standard strains; format: cell-based; settings: Table 1 strain 12: Pseudomonas aeruginosa 9027
[28] = tested on: Streptococcus faecium MD 8b; assay: as above; format: cell-based; settings: Enterococcus faecium, MD8B
[29] = tested on: Staphylococcus aureus 711 E; assay: In vitro anti-bacterial activity test (MIC, two-fold dilution method), Table 2 strains; format: cell-based
[30] = tested on: Staphylococcus aureus 705 E; assay: as above; format: cell-based
[31] = tested on: Staphylococcus aureus 692 E; assay: as above; format: cell-based; settings: Table 2 strain 6: Staphylococcus aureus 692 E
[32] = tested on: Staphylococcus aureus 725 E; assay: as above; format: cell-based
[33] = tested on: Klebsiella aerogenes 1522 E; assay: In vitro anti-bacterial activity test (MIC, two-fold dilution method) against the standard strains; format: cell-based; settings: Table 1 strain 18: Klebsiella aerogenes 1522 E
Salmonella typhimurium = assay: as above; format: cell-based; settings: Salmonella enterica; Table 1 strain 16: Salmonella typhimurium
[34] = tested on: Enterobacter cloacae 1321 E; assay: as above; format: cell-based; settings: Table 1 strain 20: Enterobacter cloacae 1321 E
[35] = tested on: Enterobacter cloacae P 99; assay: as above; format: cell-based; settings: P99; Table 1 strain 19: Enterobacter cloacae P 99

Structure (SMILES): O=C(O)c1cn(C2CC2)c2cc(N3CCNCC3)c(F)cc2c1=O [Ciprofloxacin, ciprofloxacin, reference compound]
- MIC ([1]; Staphylococcus aureus, 703E): 0.781 µg/mL (≈ 2.36 µM)
- MIC ([2]; Staphylococcus aureus, 695E): 0.781 µg/mL (≈ 2.36 µM)
- MIC ([3]; Staphylococcus aureus, 707E): 0.781 µg/mL (≈ 2.36 µM)
- MIC (Escherichia coli DC 0 [4]): 0.002 µg/mL (≈ 0.00604 µM)
- MIC ([5]; Staphylococcus aureus, 693E): 0.781 µg/mL (≈ 2.36 µM)
- ED50 (P. mirabilis; Oral Administration): 0.82 mg/kg
- ED50 (P. mirabilis; sc, Subcutaneous Injection): 0.16 mg/kg
- ED50 (S. aureus 17740): > 200 mg/kg
- MIC ([6]; Staphylococcus aureus, 714E): 0.781 µg/mL (≈ 2.36 µM)
- MIC ([7]; Staphylococcus aureus, 694E): 0.781 µg/mL (≈ 2.36 µM)
- MIC [8]: 0.007 µg/mL (≈ 0.0211 µM)
- MIC [9]: 0.391 µg/mL (≈ 1.18 µM)
- MIC ([10]; Staphylococcus aureus, 503): 0.781 µg/mL (≈ 2.36 µM)
- MIC [11]: 1.56 µg/mL (≈ 4.72 µM)
- MIC [12]: 0.195 µg/mL (≈ 0.589 µM)
- MIC ([13]; Streptococcus pyogenes, 77A): 0.781 µg/mL (≈ 2.36 µM)
- MIC (Escherichia coli DC 0 [14]): 0.391 µg/mL (≈ 1.18 µM)
- MIC [15]: 0.391 µg/mL (≈ 1.18 µM)
- MIC ([16]; Staphylococcus aureus, 706E): 0.781 µg/mL (≈ 2.36 µM)
- MIC [17]: 0.195 µg/mL (≈ 0.589 µM)
- MIC [18]: 0.098 µg/mL (≈ 0.296 µM)
- MIC (Escherichia coli 1507 E): 0.007 µg/mL (≈ 0.0211 µM)
- MIC ([19]; Staphylococcus aureus, 701E): 0.781 µg/mL (≈ 2.36 µM)
- MIC (Escherichia coli DC 2): 0.195 µg/mL (≈ 0.589 µM)
- MIC [20]: 3.12 µg/mL (≈ 9.43 µM)
- MIC [21]: 1.56 µg/mL (≈ 4.72 µM)
- MIC ([22]; Staphylococcus aureus, 690E): 0.781 µg/mL (≈ 2.36 µM)
- MIC ([23]; Staphylococcus aureus, 285): 0.781 µg/mL (≈ 2.36 µM)
- MIC ([24]; Staphylococcus aureus, 208E): 0.781 µg/mL (≈ 2.36 µM)
- MIC [25]: 0.391 µg/mL (≈ 1.18 µM)
- MIC (Escherichia coli OTEM): 0.007 µg/mL (≈ 0.0211 µM)
- MIC ([26]; Staphylococcus aureus, 121E): 0.781 µg/mL (≈ 2.36 µM)
- MIC [27]: 0.391 µg/mL (≈ 1.18 µM)
- MIC [28]: 0.781 µg/mL (≈ 2.36 µM)
- MIC ([29]; Staphylococcus aureus, 711E): 0.781 µg/mL (≈ 2.36 µM)
- MIC ([30]; Staphylococcus aureus, 705E): 0.781 µg/mL (≈ 2.36 µM)
- MIC [31]: 0.391 µg/mL (≈ 1.18 µM)
- MIC ([32]; Staphylococcus aureus, 725E): 0.781 µg/mL (≈ 2.36 µM)

Structure (SMILES): Nc1c(F)c(N2CCC3(CC3N)C2)c(F)c2c1c(=O)c(C(=O)O)cn2C1CC1 (centres unmarked) [Example 7, 7-(1-amino-5-azaspiro[2,4]heptane-5-yl)-1-cyclopropyl-5-amino-6,8-difluoro-1,4-dihydro-4-oxo-quinoline-3-carboxylic acid]
- MIC ([1]; Table 2 strain 12: Staphylococcus aureus 703 E, read-out: MIC): 0.025 µg/mL (≈ 0.064 µM)
- MIC ([2]; Table 2 strain 9: Staphylococcus aureus 695 E, read-out: MIC): 0.013 µg/mL (≈ 0.0333 µM)
- MIC [33]: 0.098 µg/mL (≈ 0.251 µM)
- MIC ([3]; Table 2 strain 15: Staphylococcus aureus 707 E, read-out: MIC): 0.025 µg/mL (≈ 0.064 µM)
- MIC (Escherichia coli DC 0 [4]): 0.007 µg/mL (≈ 0.0179 µM)
- MIC ([5]; Table 2 strain 7: Staphylococcus aureus 693 E, read-out: MIC): 0.013 µg/mL (≈ 0.0333 µM)
- MIC ([6]; Table 2 strain 18: Staphylococcus aureus 714 E, read-out: MIC): 0.013 µg/mL (≈ 0.0333 µM)
- MIC ([7]; Table 2 strain 8: Staphylococcus aureus 694 E, read-out: MIC): 0.025 µg/mL (≈ 0.064 µM)
- MIC [8]: 0.007 µg/mL (≈ 0.0179 µM)
- MIC [9]: 0.781 µg/mL (≈ 2 µM)
- MIC ([10]; Table 1 strain 6: Staphylococcus aureus 503, read-out: MIC): 0.025 µg/mL (≈ 0.064 µM)
- MIC [11]: 0.025 µg/mL (≈ 0.064 µM)
- MIC (Salmonella typhimurium): 0.025 µg/mL (≈ 0.064 µM)
- MIC [12]: 0.007 µg/mL (≈ 0.0179 µM)
- MIC ([13]; Table 1 strain 2: Streptococcus pyogenes 77 A, read-out: MIC): 0.195 µg/mL (≈ 0.5 µM)
- MIC (Escherichia coli DC 0 [14]): 0.391 µg/mL (≈ 1 µM)
- MIC [34]: 0.013 µg/mL (≈ 0.0333 µM)
- MIC [15]: 1.56 µg/mL (≈ 4 µM)
- MIC ([16]; Table 2 strain 14: Staphylococcus aureus 706 E, read-out: MIC): 0.025 µg/mL (≈ 0.064 µM)
- MIC [17]: 0.025 µg/mL (≈ 0.064 µM)
- MIC [35]: 0.025 µg/mL (≈ 0.064 µM)
- MIC [18]: 0.391 µg/mL (≈ 1 µM)
- MIC (Escherichia coli 1507 E): 0.098 µg/mL (≈ 0.251 µM)
- MIC ([19]; Table 2 strain 11: Staphylococcus aureus 701 E, read-out: MIC): 0.025 µg/mL (≈ 0.064 µM)
- MIC (Escherichia coli DC 2): 0.098 µg/mL (≈ 0.251 µM)
- MIC [20]: 0.391 µg/mL (≈ 1 µM)
- MIC [21]: 0.098 µg/mL (≈ 0.251 µM)
- MIC ([22]; Table 2 strain 5: Staphylococcus aureus 690 E, read-out: MIC): 0.013 µg/mL (≈ 0.0333 µM)
- MIC ([23]; Table 1 strain 5: Staphylococcus aureus 285, read-out: MIC): 0.025 µg/mL (≈ 0.064 µM)
- MIC ([24]; Table 2 strain 3: Staphylococcus aureus 208 E, read-out: MIC): 0.025 µg/mL (≈ 0.064 µM)
- MIC [25]: 0.013 µg/mL (≈ 0.0333 µM)
- MIC (Escherichia coli OTEM): 0.025 µg/mL (≈ 0.064 µM)
- MIC ([26]; Table 2 strain 2: Staphylococcus aureus 121 E, read-out: MIC): 0.025 µg/mL (≈ 0.064 µM)
- MIC [27]: 1.56 µg/mL (≈ 4 µM)
- MIC ([28]; Table 1 strain 3: Streptococcus faecium MD 8b, read-out: MIC): 0.391 µg/mL (≈ 1 µM)
- MIC ([29]; Table 2 strain 17: Staphylococcus aureus 711 E, read-out: MIC): 0.007 µg/mL (≈ 0.0179 µM)
- MIC ([30]; Table 2 strain 13: Staphylococcus aureus 705 E, read-out: MIC): 0.025 µg/mL (≈ 0.064 µM)
- MIC [31]: 0.013 µg/mL (≈ 0.0333 µM)
- MIC ([32]; Table 2 strain 19: Staphylococcus aureus 725 E, read-out: MIC): 0.025 µg/mL (≈ 0.064 µM)
